Laboratory results as given in article PMC314469, “Protein Interaction Networks by Proteome Peptide Scanning” (PLoS Biology, 2004).

Tested on: Myo5 SH3 domain
Assay: SPOT analysis of cellulose-bound peptides (WISE), Myo5 SH3 domain (Dataset S4)
Format: binding, Saccharomyces cerevisiae
Details: for The normalized value in BLU units: Myo5 SH3 domain
[1] = SPOT analysis of membrane-synthesized peptides probed with Myo5 SH3 domain, normalized value
[2] = SPOT analysis of membrane-bound peptides, normalized value (see methods)
[3] = SPOT analysis of cellulose-bound peptides probed with Myo5 SH3 domain, normalized value
[4] = SPOT analysis of cellulose-bound 14-mer yeast proteome peptides, normalized value, mean where the peptide was synthesized more than once

**Q.** AVLIRADPLNPKVV was tested. Which “The normalized value in BLU units (SPOT analysis, Myo5 SH3)” value [1] did it give?
**A.** The value was 102.0 BLU.

**Q.** Which “The normalized value in BLU units (SPOT analysis, Myo5 SH3)” value [1] does the source give for AVQLKRQPAQPRES here?
**A.** The value was 237.9 BLU.

**Q.** Which “The normalized value in BLU units” value [2] does the source give for AVVYKLKPYIPSLS here?
**A.** Its value is 112.0 BLU.

**Q.** CAKSKSRPNTPGSD was tested. Which “The normalized value in BLU units” value [2] did it give?
**A.** Its value is 153.0 BLU.

**Q.** CFKTKFAPEAPDLF was tested. Which “The normalized value in BLU units” value [2] did it give?
**A.** The value was 209.0 BLU.

**Q.** With CKYNRQHPANPAAA as the sequence, how does the “The normalized value in BLU units” value [2] read?
**A.** Its value is 189.3 BLU.

**Q.** For CLRARNGPVPPVHI, which “The normalized value in BLU units” value [2] is on record?
**A.** The value was 207.8 BLU.

**Q.** With CNRARYLPQNPDII as the sequence, how does the “The normalized value in BLU units” value [2] read?
**A.** The value was 243.9 BLU.

**Q.** With CNYSKIFPGIPISL as the sequence, how does the “The normalized value in BLU units (SPOT analysis, Myo5 SH3)” value [1] read?
**A.** The value was 49.2 BLU.

**Q.** For CRHLKLVPSTPMDI, which “The normalized value in BLU units” value [2] is on record?
**A.** Its value is 361.8 BLU.

**Q.** With CWHPKTIPKQPMEI as the sequence, how does the “The normalized value in BLU units (SPOT analysis, Myo5 SH3)” value [1] read?
**A.** Its value is 342.9 BLU.

**Q.** How did the “The normalized value in BLU units (SPOT analysis, Myo5 SH3)” value [3] turn out when DARPFLKPVDPIAL was run?
**A.** The value was 126.2 BLU.

**Q.** Which “The normalized value in BLU units (SPOT analysis, Myo5 SH3)” value [3] does the source give for DARPFLQPVDPVKL here?
**A.** The value was 179.1 BLU.

**Q.** How did the “The normalized value in BLU units” value [2] turn out when DDIIKDHPHIPNGQ was run?
**A.** Its value is 57.8 BLU.

**Q.** With DDNVRPSPISPSIN as the sequence, how does the “The normalized value in BLU units” value [2] read?
**A.** Its value is 153.4 BLU.

**Q.** With DEALRYCPDAPIVL as the sequence, how does the “The normalized value in BLU units” value [2] read?
**A.** The value was 127.1 BLU.

**Q.** Which “The normalized value in BLU units (SPOT analysis, Myo5 SH3)” value [1] does the source give for DEFNRNTPPQPSLL here?
**A.** The value was 118.0 BLU.

**Q.** With DEFTLDLPRIPSLE as the sequence, how does the “The normalized value in BLU units” value [4] read?
**A.** The value was 180.8 BLU.

**Q.** For DELLLMSPELPADL, which “The normalized value in BLU units (SPOT analysis, Myo5 SH3)” value [3] is on record?
**A.** Its value is 16.0 BLU.

**Q.** Which “The normalized value in BLU units (SPOT analysis, Myo5 SH3)” value [1] does the source give for DENSKWQPSDPFTM here?
**A.** The value was 285.2 BLU.

**Q.** For DEPIRYAPGDPIEK, which “The normalized value in BLU units (SPOT analysis, Myo5 SH3)” value [1] is on record?
**A.** Its value is 106.5 BLU.

**Q.** How did the “The normalized value in BLU units” value [2] turn out when DETRKLTPCSPGDD was run?
**A.** The value was 230.8 BLU.

**Q.** DFIGRKSPDLPEYL was tested. Which “The normalized value in BLU units” value [2] did it give?
**A.** The value was 138.7 BLU.

**Q.** With DFIKLMNPTLPSLK as the sequence, how does the “The normalized value in BLU units” value [4] read?
**A.** Its value is 151.5 BLU.

**Q.** How did the “The normalized value in BLU units” value [4] turn out when DFNKFERPNIPVEE was run?
**A.** The value was 212.3 BLU.

**Q.** How did the “The normalized value in BLU units (SPOT analysis, Myo5 SH3)” value [3] turn out when DFPLYKSPAFPSSC was run?
**A.** Its value is 172.8 BLU.

**Q.** With DFRGRAYPLSPHFN as the sequence, how does the “The normalized value in BLU units (SPOT analysis, Myo5 SH3)” value [1] read?
**A.** Its value is 785.0 BLU.

**Q.** Which “The normalized value in BLU units (SPOT analysis, Myo5 SH3)” value [3] does the source give for DFRLHYYPKDPSNV here?
**A.** The value was 77.7 BLU.

**Q.** DFSSYGPPGTPGYD was tested. Which “The normalized value in BLU units (SPOT analysis, Myo5 SH3)” value [3] did it give?
**A.** Its value is 108.5 BLU.

**Q.** For DFVTLHVPATPETE, which “The normalized value in BLU units” value [4] is on record?
**A.** The value was 190.5 BLU.

**Q.** With DGKLKHIPRRPYEI as the sequence, how does the “The normalized value in BLU units” value [4] read?
**A.** Its value is 306.6 BLU.

**Q.** With DIGSKKLPTGPSKK as the sequence, how does the “The normalized value in BLU units (SPOT analysis, Myo5 SH3)” value [1] read?
**A.** Its value is 219.8 BLU.

**Q.** DIKTRSVPKIPSIE was tested. Which “The normalized value in BLU units” value [2] did it give?
**A.** Its value is 102.3 BLU.

**Q.** With DILKKESPDVPLFD as the sequence, how does the “The normalized value in BLU units (SPOT analysis, Myo5 SH3)” value [1] read?
**A.** Its value is 146.1 BLU.

**Q.** For DIPLKQVPENPMPT, which “The normalized value in BLU units” value [2] is on record?
**A.** The value was 62.9 BLU.

**Q.** With DIPRRYIPITPADL as the sequence, how does the “The normalized value in BLU units” value [2] read?
**A.** The value was 33.0 BLU.

**Q.** How did the “The normalized value in BLU units” value [2] turn out when DKFIKLIPMRPVLI was run?
**A.** The value was 252.9 BLU.

**Q.** DKIFKTDPNEPAND was tested. Which “The normalized value in BLU units (SPOT analysis, Myo5 SH3)” value [1] did it give?
**A.** The value was 99.1 BLU.

**Q.** With DKKKKKYPRKPKKN as the sequence, how does the “The normalized value in BLU units” value [2] read?
**A.** Its value is 532.3 BLU.

**Q.** With DLDWRKIPFLPKEI as the sequence, how does the “The normalized value in BLU units” value [4] read?
**A.** The value was 250.1 BLU.

**Q.** For DLIHLDCPQQPNGY, which “The normalized value in BLU units” value [4] is on record?
**A.** Its value is 219.5 BLU.

**Q.** How did the “The normalized value in BLU units (SPOT analysis, Myo5 SH3)” value [3] turn out when DLKEFNGPEPPIKR was run?
**A.** The value was 125.6 BLU.

**Q.** DLKKKYAPDPPITH was tested. Which “The normalized value in BLU units” value [2] did it give?
**A.** Its value is 185.5 BLU.

**Q.** DLLGLSTPQSPTNS was tested. Which “The normalized value in BLU units (SPOT analysis, Myo5 SH3)” value [3] did it give?
**A.** The value was 91.9 BLU.

**Q.** For DLMALKYPYFPTKM, which “The normalized value in BLU units (SPOT analysis, Myo5 SH3)” value [3] is on record?
**A.** The value was 139.1 BLU.

**Q.** How did the “The normalized value in BLU units” value [2] turn out when DLQKKYEPSPPATH was run?
**A.** Its value is 224.6 BLU.

**Q.** How did the “The normalized value in BLU units” value [2] turn out when DLSLRYAPNLPRVI was run?
**A.** The value was 249.6 BLU.

**Q.** Which “The normalized value in BLU units” value [4] does the source give for DLSVHTSPHGPIGS here?
**A.** The value was 186.1 BLU.

**Q.** With DLSYYLRPIKPFNT as the sequence, how does the “The normalized value in BLU units (SPOT analysis, Myo5 SH3)” value [3] read?
**A.** Its value is 160.7 BLU.

**Q.** For DNELKDEPEPPNLI, which “The normalized value in BLU units (SPOT analysis, Myo5 SH3)” value [1] is on record?
**A.** The value was 179.2 BLU.

**Q.** How did the “The normalized value in BLU units (SPOT analysis, Myo5 SH3)” value [3] turn out when DPNAYMQPQVPVQM was run?
**A.** Its value is 160.5 BLU.

**Q.** How did the “The normalized value in BLU units” value [4] turn out when DPNQLSTPPTPKSA was run?
**A.** Its value is 166.4 BLU.

**Q.** For DPSDKSLPQQPFHK, which “The normalized value in BLU units” value [2] is on record?
**A.** The value was 191.9 BLU.

**Q.** For DPSLYQIPEPPRGG, which “The normalized value in BLU units (SPOT analysis, Myo5 SH3)” value [3] is on record?
**A.** Its value is 98.8 BLU.

**Q.** Which “The normalized value in BLU units (SPOT analysis, Myo5 SH3)” value [1] does the source give for DQLNRLLPNLPEEE here?
**A.** Its value is 47.5 BLU.

**Q.** Which “The normalized value in BLU units (SPOT analysis, Myo5 SH3)” value [1] does the source give for DRKNRAPPQRPRFN here?
**A.** The value was 2434.1 BLU.

**Q.** Which “The normalized value in BLU units (SPOT analysis, Myo5 SH3)” value [1] does the source give for DRLSKIKPFLPQSI here?
**A.** The value was 225.5 BLU.

**Q.** DSVLRQKPDKPRPI was tested. Which “The normalized value in BLU units” value [2] did it give?
**A.** The value was 134.9 BLU.

**Q.** How did the “The normalized value in BLU units” value [2] turn out when DSYSRSRPTRPLGY was run?
**A.** Its value is 261.3 BLU.

**Q.** For DTYARNNPDFPPQN, which “The normalized value in BLU units” value [4] is on record?
**A.** Its value is 138.5 BLU.

**Q.** Which “The normalized value in BLU units (SPOT analysis, Myo5 SH3)” value [1] does the source give for DVNHRYPPMAPTTV here?
**A.** Its value is 175.5 BLU.

**Q.** How did the “The normalized value in BLU units (SPOT analysis, Myo5 SH3)” value [1] turn out when DYRPKCIPCPPNGI was run?
**A.** Its value is 154.3 BLU.

**Q.** Which “The normalized value in BLU units” value [4] does the source give for EADGLVQPVVPDKV here?
**A.** The value was 75.1 BLU.

**Q.** Which “The normalized value in BLU units” value [4] does the source give for EAFKLPKPWSPNSH here?
**A.** The value was 141.0 BLU.

**Q.** With EAGDFEQPKGPAGA as the sequence, how does the “The normalized value in BLU units (SPOT analysis, Myo5 SH3)” value [3] read?
**A.** The value was 49.8 BLU.

**Q.** For EAHQHHQPPEPQPY, which “The normalized value in BLU units (SPOT analysis, Myo5 SH3)” value [3] is on record?
**A.** Its value is 0.0 BLU.

**Q.** With EAIKLGVPKGPLFA as the sequence, how does the “The normalized value in BLU units (SPOT analysis, Myo5 SH3)” value [3] read?
**A.** The value was 130.4 BLU.

**Q.** How did the “The normalized value in BLU units (SPOT analysis, Myo5 SH3)” value [3] turn out when EARPYSEPSEPEDS was run?
**A.** The value was 208.3 BLU.

**Q.** Which “The normalized value in BLU units” value [4] does the source give for EAYRLNYPELPRLT here?
**A.** Its value is 125.1 BLU.

**Q.** Which “The normalized value in BLU units” value [2] does the source give for EDLVKKPPFIPSPT here?
**A.** Its value is 755.9 BLU.

**Q.** EEEAKSVPPIPADQ was tested. Which “The normalized value in BLU units (SPOT analysis, Myo5 SH3)” value [1] did it give?
**A.** The value was 29.4 BLU.
